{"source": "patent US20050065068A1", "about": "“Methods and compositions for reducing serum phosphate levels” (priority 1999, published 2005)", "key": {"[1]": {"system": "ovariectomized female Sprague Dawley rats", "experiment": "Serum and urine chemistry in the ovariectomized rat osteoporosis model", "type": "in vivo", "settings": "OVX rats; for Serum Ca^2+ / Urine Ca^2+ / Serum AP (serum alkaline phosphatase) / Serum Pi (serum inorganic phosphate): 200-208 μg/kg peptide oral daily for 84 days; for Serum Ca^2+ / Serum AP (serum alkaline phosphatase) / Serum Pi (serum inorganic phosphate): terminal sample Day 84", "excerpt": "Ovariectomized rats were chosen for the efficacy study of a series of peptides. After a six (6) day quarantine/acclimation period, forty (40) ovariectomized female Sprague Dawley outbred (Crl:CD®IGS BR) rats were randomly allocated into five experimental groups of eight animals each. A sixth group was composed of eight sham-operated Sprague Dawley rats. The experimental design consisted of four test-article groups and two vehicle control groups (one ovariectomized and one sham-operated). Each rat received a single daily oral dose for 84 days of either 0.9% Sodium Chloride for Injection (controls) or 200-208 μg/kg of peptide as specified in Table 1. Doses were based upon a target dose of 50 μg/animal/day and group mean body weights determined at study initiation (Day 0). “Sham” indicates sham-operated rats; and “OVX” indicates ovariectomized rats. The dose range of 200-208 μg/kg/day employed in the study represents the target dose (50 μg/animal/day) in animals weighing […] at study initiation. The test samples for groups 1, 2, 3, and 4 were dissolved in 0.9% Sodium Chloride for injection and administered at once. All dosing was accomplished by oral gavage (dose volume 1.0-1.5 mL, adjusted weekly for bodyweight gain). Certified Rodent Diet #5002 (Purina Mills, Inc., St. Louis, Mo.) was provided during the quarantine/acclimation period and throughout the study. Clinical signs were observed once daily throughout the quarantine/acclimation and treatment periods. Individual body weights were recorded at the initiation of the dosing, once weekly throughout the treatment phase, and at necropsy. Animals were sacrificed approximately 24 hours after the administration of the final dose (Day 84). Terminal whole blood samples were collected from each animal for serum chemistry (i.e. measurement of serum calcium and phosphorus) evaluations via terminal cardiocentesis. Femurs were submitted for post-mortem bone mechanical strength and composition analysis."}, "[2]": {"system": "ovariectomized female Sprague Dawley rats", "experiment": "Three-point bending mechanical strength test of the femur in the ovariectomized rat osteoporosis model", "type": "in vivo", "settings": "right femur, Day 84, vs. Group 5", "excerpt": "Ovariectomized rats were chosen for the efficacy study of a series of peptides. After a six (6) day quarantine/acclimation period, forty (40) ovariectomized female Sprague Dawley outbred (Crl:CD®IGS BR) rats were randomly allocated into five experimental groups of eight animals each. A sixth group was composed of eight sham-operated Sprague Dawley rats. The experimental design consisted of four test-article groups and two vehicle control groups (one ovariectomized and one sham-operated). Each rat received a single daily oral dose for 84 days of either 0.9% Sodium Chloride for Injection (controls) or 200-208 μg/kg of peptide as specified in Table 1. Doses were based upon a target dose of 50 μg/animal/day and group mean body weights determined at study initiation (Day 0). “Sham” indicates sham-operated rats; and “OVX” indicates ovariectomized rats. The dose range of 200-208 μg/kg/day employed in the study represents the target dose (50 μg/animal/day) in animals weighing […] at study initiation. The test samples for groups 1, 2, 3, and 4 were dissolved in 0.9% Sodium Chloride for injection and administered at once. All dosing was accomplished by oral gavage (dose volume 1.0-1.5 mL, adjusted weekly for bodyweight gain). Certified Rodent Diet #5002 (Purina Mills, Inc., St. Louis, Mo.) was provided during the quarantine/acclimation period and throughout the study. Clinical signs were observed once daily throughout the quarantine/acclimation and treatment periods. Individual body weights were recorded at the initiation of the dosing, once weekly throughout the treatment phase, and at necropsy. Animals were sacrificed approximately 24 hours after the administration of the final dose (Day 84). Terminal whole blood samples were collected from each animal for serum chemistry (i.e. measurement of serum calcium and phosphorus) evaluations via terminal cardiocentesis. Femurs were submitted for post-mortem bone mechanical strength and composition analysis. The right femur of each animal was reserved for bone mechanical strength evaluation (i.e. three-point bending analysis). Femurs were placed on an apparatus in which two isolated points of the long bone were supported. Weight load was applied at the center of two supporting points toward the direction in which the bone is bent. […] Femurs were positioned with the anterior side toward the center load, and the posterior side toward the two supports. The loading was done in an Instron Model #1122 materials testing machine (Canton, Mass.). Testing was conducted with a displacement of 2.0 mm/minute. Load and displacement were recorded at 0.002 mm displacement intervals. Experiments were controlled using a computer-based data acquisition system running ASYST Scientific Software (Keithley-Metrabyte; Taunton, Mass.). The following data were generated: Maximum Load (in Newton, N); Initial Stiffness (in N/mm); Energy at Maximum (in Nmm) The value of the load was plotted against the deflection generating the load-deflection curve. Two points in the initial linear portion of the load-deflection curve were chosen by the operator at the time of testing. A line was constructed through the chosen points, the slope of which is the initial stiffness. The maximum load is the largest value of the load recorded during the flexural test. The energy at maximum is the area under the load-deflection curve up to the maximum load point."}}, "note": "Non-standard residues stand in square brackets, D forms with d. Residues, ends and D or L forms follow the SMILES beside them. No end group written: not given here. pS = N[C@@H](COP(=O)(O)O)C(=O)O"}
{"molecule": "N[C@@H](COP(=O)(O)O)C(=O)NCC(=O)N[C@@H](COP(=O)(O)O)C(=O)NCC(=O)N[C@@H](COP(=O)(O)O)C(=O)NCC(=O)N[C@@H](COP(=O)(O)O)C(=O)NCC(=O)N[C@@H](COP(=O)(O)O)C(=O)NCC(=O)N[C@@H](COP(=O)(O)O)C(=O)NCC(=O)N[C@@H](COP(=O)(O)O)C(=O)NCC(=O)O", "note": "[(Pse-Gly)7, Pse-Gly-Pse-Gly-Pse-Gly-Pse-Gly-Pse-Gly-Pse-Gly-Pse-Gly] (H-[pS]G[pS]G[pS]G[pS]G[pS]G[pS]G[pS]G-OH)", "values": [{"measurement": "Serum Ca^2+", "setting": "[1]", "value": "11.0 ± 0.5", "unit": "mg/dL"}]}
{"molecule": "N[C@@H](CO)C(=O)NCC(=O)N[C@@H](CO)C(=O)NCC(=O)N[C@@H](CO)C(=O)NCC(=O)N[C@@H](CO)C(=O)NCC(=O)N[C@@H](CO)C(=O)NCC(=O)N[C@@H](CO)C(=O)NCC(=O)N[C@@H](CO)C(=O)NCC(=O)O", "note": "[(Ser-Gly)7, Ser-Gly-Ser-Gly-Ser-Gly-Ser-Gly-Ser-Gly-Ser-Gly-Ser-Gly] (H-SGSGSGSGSGSGSG-OH)", "values": [{"measurement": "Urine Ca^2+", "setting": "[1]", "value": "26.7 ± 22.9", "unit": "mg/dL"}, {"measurement": "Serum AP (serum alkaline phosphatase)", "setting": "[1]", "value": "134 ± 53", "unit": "U/L"}, {"measurement": "Serum Ca^2+", "setting": "[1]", "value": "10.8 ± 0.6", "unit": "mg/dL"}, {"measurement": "Serum Pi (serum inorganic phosphate)", "setting": "[1]", "value": "8.8 ± 1.0", "unit": "mg/dL"}]}
{"molecule": "Ser-Gly-Ser-Gly-Pse-Gly-Pse-Gly-Pse-Gly-Pse-Gly-Pse-Gly (SGSG[pS]G[pS]G[pS]G[pS]G[pS]G) [(Ser-Gly)2(Pse-Gly)5, Linear peptide, Pse = O-phosphoserine]", "values": [{"measurement": "Urine Ca^2+", "setting": "[1]", "value": "29.5 ± 20.0", "unit": "mg/dL"}, {"measurement": "Serum AP (serum alkaline phosphatase)", "setting": "[1]", "value": "121 ± 30", "unit": "U/L"}, {"measurement": "Serum Pi (serum inorganic phosphate)", "setting": "[1]", "value": "9.2 ± 1.3", "unit": "mg/dL"}, {"measurement": "Energy at maximum compared with saline-treated ovariectomized controls (FIG. 6)", "setting": "[2]", "value": "statistically significant increase"}, {"measurement": "Initial bone stiffness compared with saline-treated ovariectomized controls (FIG. 4)", "setting": "[2]", "value": "statistically significant increase"}, {"measurement": "Maximum load compared with saline-treated ovariectomized controls (FIG. 5)", "setting": "[2]", "value": "statistically significant increase"}]}
{"molecule": "Ser-Gly-Ser-Gly-Ser-Gly-Ser-Gly-Ser-Gly-Pse-Gly-Pse-Gly (SGSGSGSGSG[pS]G[pS]G) [(Ser-Gly)5(Pse-Gly)2, Linear peptide, Pse = O-phosphoserine]", "values": [{"measurement": "Urine Ca^2+", "setting": "[1]", "value": "26.6 ± 14.1", "unit": "mg/dL"}, {"measurement": "Serum AP (serum alkaline phosphatase)", "setting": "[1]", "value": "118 ± 18", "unit": "U/L"}, {"measurement": "Serum Pi (serum inorganic phosphate)", "setting": "[1]", "value": "7.9 ± 0.9", "unit": "mg/dL"}, {"measurement": "Serum phosphorus concentration compared with controls (FIG. 1)", "setting": "[1]; oral daily for 84 days, Day 84, vs saline-treated OVX controls and sham-operated controls", "value": "equivalent to or even lower than sham-operated controls"}, {"measurement": "Energy at maximum compared with saline-treated ovariectomized controls (FIG. 6)", "setting": "[2]", "value": "statistically significant increase"}, {"measurement": "Initial bone stiffness compared with saline-treated ovariectomized controls (FIG. 4)", "setting": "[2]", "value": "statistically significant increase"}, {"measurement": "Maximum load compared with saline-treated ovariectomized controls (FIG. 5)", "setting": "[2]", "value": "statistically significant increase"}]}
